# Numbered stars: 1 amine (or outer) side, 2 acyl side, 3 side chain; on linkers, the order of the positions; unused ones are H or OH. Bridge positions count the residues as written; N and C are the ends. Square brackets hold non-standard residues; d marks the D form. Peptide text beside a SMILES is read from it. * marks the point of attachment. ξ: configuration not given here. Phe(3-CF3) = N[C@@H](Cc1cccc(C(F)(F)F)c1)C(=O)O; Phe(F5) = N[C@@H](Cc1c(F)c(F)c(F)c(F)c1F)C(=O)O; Phe(4-COOH) = N[C@@H](Cc1ccc(C(=O)O)cc1)C(=O)O; Bip = N[C@@H](Cc1ccc(-c2ccccc2)cc1)C(=O)O; NH(CH2)14COOH = O=C(O)CCCCCCCCCCCCCCN*; Phe(3-Me) = Cc1cccc(C[C@H](N)C(=O)O)c1; γGlu = O=C(O)[C@H](CCC(=O)[*:2])N[*:1]; NH(CH2)12COOH = O=C(O)CCCCCCCCCCCCN*; Val(3-OH) = CC(C)(O)[C@H](N)C(=O)O; hArg = N=C(N)NCCCC[C@H](N)C(=O)O; 4Pal = N[C@@H](Cc1ccncc1)C(=O)O; Cha = N[C@@H](CC1CCCCC1)C(=O)O; Cit = NC(=O)NCCC[C@H](N)C(=O)O; Thr(3ξ) = CC(O)[C@H](N)C(=O)O; Cba = N[C@@H](CC1CCC1)C(=O)O; PEG4 = NCCOCCOCCOCCOCCC(=O)O; 12Ado = NCCCCCCCCCCCC(=O)O; Carboxymethyl = O=C(O)C*; Orn = NCCC[C@H](N)C(=O)O; Aun = NCCCCCCCCCCC(=O)O; Dab = NCC[C@H](N)C(=O)O; Dap = NC[C@H](N)C(=O)O; AEEA = NCCOCCOCC(=O)O; Ac3c = NC1(C(=O)O)CC1
# Target: T1, PD-1/PD-L1 interaction (PE-labeled human PD-L1-Ig binding to Jurkat cell line over-expressing human PD-1) (Homo sapiens, UniProt Q15116)
# T1 construct: expressed in transfected cells; host or cells: Jurkat
# Assay: Jurkat-PD-1 Cell Binding High-Content Screening Assay (CBA)
# Format: cell-based
# Details: Jurkat cell line over-expressing human PD-1; PE-labeled PD-L1-Ig 20 nM final; read-out: Jurkat hPD1-PDL1 IC50
# Outline: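 Read-out is high-content imaging of cell-bound phycoerythrin-tagged PD-L1-Ig on fixed, Hoechst-counterstained Jurkat cells that over-express human PD-1. Compound exposure lasts 2 h at 37° C before the labeled ligand (20 nM final) is added for a further hour.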
# T1 sequence (Q15116 25-288): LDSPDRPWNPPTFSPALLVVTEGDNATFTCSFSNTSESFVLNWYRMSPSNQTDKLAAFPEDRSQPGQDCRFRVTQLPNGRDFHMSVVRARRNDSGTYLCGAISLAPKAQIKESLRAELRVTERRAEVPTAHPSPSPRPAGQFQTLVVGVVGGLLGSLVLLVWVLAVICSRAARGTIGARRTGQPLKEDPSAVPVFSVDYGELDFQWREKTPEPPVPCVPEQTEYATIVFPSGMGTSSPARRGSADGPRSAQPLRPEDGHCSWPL
row,IC50,SMILES
1,16.5 nM,CC(C)C[C@H]1NC(=O)[C@H](CCCN)NC(=O)[C@H](C(C)C)NC(=O)[C@H](Cc2ccc(-c3ccccc3)cc2)NC(=O)[C@H](C(C)C)NC(=O)[C@H](Cc2c[nH]c3ccccc23)NC(=O)[C@H](CC(=O)O)NC(=O)[C@H](Cc2ccc(OCC(=O)O)cc2)NC(=O)[C@H](CCCCNC(=N)N)NC(=O)CSC[C@@H](C(=O)NCC(=O)NCCOCCOCC(=O)N[C@@H](CCCN)C(=O)NCCCCCCCCCCC(=O)O)NC(=O)[C@H](C(C)O)NC(=O)[C@H](C(C)C)NC(=O)[C@H](CC2CCCCC2)NC(=O)[C@H](CCN)NC1=O (stereo partly drawn) [Compound 3130] ({CH2CO}-[hArg]Y(Carboxymethyl)DWV[Bip]V[Orn][dL][Dab][Cha]V[Thr(3ξ)]CG[AEEA][Orn][Aun]-OH; thioether N-14)
2,331 nM,Cc1cccc(C[C@@H]2NC(=O)[C@H](CC(=O)O)NC(=O)[C@H](Cc3ccc(OCC(=O)O)cc3)NC(=O)[C@H](CN)NC(=O)CSC[C@@H](C(=O)N[C@@H](CCN)C(=O)NCCOCCOCC(=O)NCCCCCCCCCCC(=O)O)NC(=O)[C@H](CCC(=O)O)NC(=O)[C@H](C(C)C)NC(=O)[C@H](Cc3c(F)c(F)c(F)c(F)c3F)NC(=O)[C@H](CCN)NC(=O)[C@@H](CC(C)C)NC(=O)[C@H](CCCN)NC(=O)[C@H](Cc3ccc(OCC(=O)O)cc3)NC(=O)[C@H](Cc3ccc(-c4ccccc4)cc3)NC(=O)[C@H](Cc3ccc(C(=O)O)cc3)NC2=O)c1 [Compound 1273] ({CH2CO}-[Dap]Y(Carboxymethyl)D[Phe(3-Me)][Phe(4-COOH)][Bip]Y(Carboxymethyl)[Orn][dL][Dab][Phe(F5)]VEC[Dab][AEEA][Aun]-OH; thioether N-14)
3,212 nM,Cc1cccc(C[C@@H]2NC(=O)[C@H](CC(=O)O)NC(=O)[C@H](Cc3ccc(OCC(=O)O)cc3)NC(=O)[C@H](CCN)NC(=O)CSC[C@@H](C(=O)N[C@@H](CCN)C(=O)NCCOCCOCC(=O)NCCCCCCCCCCCCCCC(=O)O)NC(=O)[C@H](CO)NC(=O)[C@H](C(C)(C)O)NC(=O)[C@H](CC3CCCCC3)NC(=O)[C@H](Cc3c[nH]cn3)NC(=O)[C@@H](CC(C)C)NC(=O)[C@H](CCCN)NC(=O)[C@H](Cc3ccc(OCC(=O)O)cc3)NC(=O)[C@H](Cc3ccc(-c4ccccc4)cc3)NC(=O)[C@H](Cc3ccc(OCC(=O)O)cc3)NC2=O)c1 [Compound 2876] ({CH2CO}-[Dab]Y(Carboxymethyl)D[Phe(3-Me)]Y(Carboxymethyl)[Bip]Y(Carboxymethyl)[Orn][dL]H[Cha][Val(3-OH)]SC[Dab][AEEA]-{NH(CH2)14COOH}; thioether N-14)
4,14.9 nM,CC(C)C[C@H]1NC(=O)[C@H](CCCN)NC(=O)[C@H](C(C)C)NC(=O)[C@H](Cc2ccc(-c3ccccc3)cc2)NC(=O)[C@H](C(C)C)NC(=O)[C@H](Cc2c[nH]c3ccccc23)NC(=O)[C@H](CC(=O)O)NC(=O)[C@H](Cc2ccc(OCC(=O)O)cc2)NC(=O)[C@H](CN)NC(=O)CSC[C@@H](C(=O)NCCOCCOCC(=O)N[C@@H](CCCN)C(=O)NCCCCCCCCCCC(=O)O)NC(=O)[C@H]([C@@H](C)O)NC(=O)[C@H](C(C)C)NC(=O)[C@H](CC2CCCCC2)NC(=O)[C@H](Cc2cnc[nH]2)NC1=O [Compound 1097] ({CH2CO}-[Dap]Y(Carboxymethyl)DWV[Bip]V[Orn][dL]H[Cha]VTC[AEEA][Orn][Aun]-OH; thioether N-14)
5,4.6 nM,Cc1cccc(C[C@@H]2NC(=O)[C@H](CC(=O)O)NC(=O)[C@H](Cc3ccc(OCC(=O)O)cc3)NC(=O)[C@H](CCCNC(=N)N)NC(=O)CSC[C@@H](C(=O)N[C@@H](CCN)C(=O)NCCCCCCCCCCC(=O)O)NC(=O)[C@H](CO)NC(=O)[C@H](C(C)(C)O)NC(=O)[C@H](CC3CCCCC3)NC(=O)[C@H](CCN)NC(=O)[C@@H](CC(C)C)NC(=O)[C@H](CCCN)NC(=O)[C@H](Cc3ccc(OCC(=O)O)cc3)NC(=O)[C@H](Cc3ccc(-c4ccccc4)cc3)NC(=O)[C@H](Cc3ccc(OCC(=O)O)cc3)NC2=O)c1 [Compound 2171] ({CH2CO}-RY(Carboxymethyl)D[Phe(3-Me)]Y(Carboxymethyl)[Bip]Y(Carboxymethyl)[Orn][dL][Dab][Cha][Val(3-OH)]SC[Dab][Aun]-OH; thioether N-14)
6,31.7 nM,CC(C)C[C@H]1NC(=O)[C@H](CCCN)NC(=O)[C@H](C(C)C)NC(=O)[C@H](Cc2ccc(-c3ccccc3)cc2)NC(=O)[C@H](C(C)C)NC(=O)[C@H](Cc2c[nH]c3ccccc23)NC(=O)[C@H](CC(=O)O)NC(=O)[C@H](Cc2ccc(OCC(=O)O)cc2)NC(=O)[C@H](Cc2ccc(OCC(=O)O)cc2)NC(=O)CSC[C@@H](C(=O)NCCCCCCCCCCC(=O)O)NC(=O)[C@H](CN)NC(=O)[C@H](C(C)C)NC(=O)[C@H](CC2CCCCC2)NC(=O)[C@H](CCN)NC1=O [Compound 2608] ({CH2CO}-Y(Carboxymethyl)Y(Carboxymethyl)DWV[Bip]V[Orn][dL][Dab][Cha]V[Dap]C[Aun]-OH; thioether N-14)
7,40.5 nM,Cc1cccc(C[C@@H]2NC(=O)[C@H](CC(=O)O)NC(=O)[C@H](Cc3ccc(OCC(=O)O)cc3)NC(=O)[C@H](CCCNC(=N)N)NC(=O)CSC[C@@H](C(=O)N[C@H](CO)C(=O)NCCCCCCCCCCCC(=O)O)NC(=O)[C@H](C(C)O)NC(=O)[C@H](C(C)C)NC(=O)[C@H](CC3CCCCC3)NC(=O)[C@H](CCN)NC(=O)[C@@H](CC(C)C)NC(=O)[C@H](CCCN)NC(=O)[C@H](CCCNC(N)=O)NC(=O)[C@H](Cc3ccc(-c4ccccc4)cc3)NC(=O)[C@H](C(C)C)NC2=O)c1 (stereo partly drawn) [Compound 3561] ({CH2CO}-RY(Carboxymethyl)D[Phe(3-Me)]V[Bip][Cit][Orn][dL][Dab][Cha]V[Thr(3ξ)]C[dS][12Ado]-OH; thioether N-14)
8,125 nM,COC[C@@H]1NC(=O)CSC[C@@H](C(=O)N[C@@H](CCN)C(=O)NCCOCCOCCOCCOCCC(=O)N[C@@H](CCC(=O)N[C@@H](CO)C(=O)NCCCCCCCCCCCCCCC(=O)O)C(=O)O)NC(=O)[C@H](CO)NC(=O)[C@H](C(C)(C)O)NC(=O)[C@H](CC2CCCCC2)NC(=O)[C@H](CCN)NC(=O)[C@@H](CC(C)C)NC(=O)[C@H](CCCN)NC(=O)[C@H](Cc2ccc(C(=O)O)cc2)NC(=O)[C@H](Cc2ccc(-c3ccccc3)cc2)NC(=O)[C@H](Cc2ccc(C(=O)O)cc2)NC(=O)[C@H](Cc2cccc(C(F)(F)F)c2)NC(=O)[C@H](CC(=O)O)NC(=O)[C@H](Cc2ccc(C(=O)O)cc2)NC1=O [Compound 3908] ({CH2CO}-S(Me)[Phe(4-COOH)]D[Phe(3-CF3)][Phe(4-COOH)][Bip][Phe(4-COOH)][Orn][dL][Dab][Cha][Val(3-OH)]SC[Dab][PEG4][γGlu]S-{NH(CH2)14COOH}; thioether N-14)
9,7.9 nM,Cc1cccc(C[C@@H]2NC(=O)[C@H](CC(=O)O)NC(=O)[C@H](Cc3ccc(OCC(=O)O)cc3)NC(=O)[C@H](CN)NC(=O)CSC[C@@H](C(=O)N[C@@H](C)C(=O)N[C@@H](CCC(=O)O)C(=O)NCCOCCOCC(=O)N[C@@H](CCC(=O)NCCOCCOCC(=O)NCCCCCCCCCCC(=O)O)C(=O)O)NC(=O)[C@H]([C@@H](C)O)NC(=O)[C@H](C(C)C)NC(=O)[C@H](CC3CCCCC3)NC(=O)[C@H](CCN)NC(=O)[C@@H](CC(C)C)NC(=O)[C@H](CCCN)NC(=O)[C@H](CCCNC(N)=O)NC(=O)[C@H](Cc3ccc(-c4ccccc4)cc3)NC(=O)[C@H](C(C)C)NC2=O)c1 [Compound 1015] ({CH2CO}-[Dap]Y(Carboxymethyl)D[Phe(3-Me)]V[Bip][Cit][Orn][dL][Dab][Cha]VTCAE[AEEA][γGlu][AEEA][Aun]-OH; thioether N-14)
10,84.6 nM,Cc1cccc(C[C@@H]2NC(=O)[C@H](CC(=O)O)NC(=O)[C@H](Cc3ccc(O)cc3)NC(=O)[C@H](CC(N)=O)NC(=O)CSC[C@@H](C(=O)N[C@@H](CCCCN)C(=O)NCCCCCCCCCCC(=O)O)NC(=O)[C@H](CN)NC(=O)[C@H](C(C)C)NC(=O)[C@H](CC(C)C)NC(=O)[C@H](CCN)NC(=O)[C@@H](CC(C)C)NC(=O)[C@H](CCCN)NC(=O)[C@H](CCCNC(N)=O)NC(=O)[C@H](Cc3ccc(-c4ccccc4)cc3)NC(=O)[C@H](C(C)C)NC2=O)c1 [Compound 2800] ({CH2CO}-NYD[Phe(3-Me)]V[Bip][Cit][Orn][dL][Dab]LV[Dap]CK[Aun]-OH; thioether N-14)
11,33.3 nM,Cc1cccc(C[C@@H]2NC(=O)[C@H](CC(=O)O)NC(=O)[C@H](Cc3ccc(OCC(=O)O)cc3)NC(=O)[C@H](CCCNC(=N)N)NC(=O)CSC[C@@H](C(=O)NC3(C(=O)NCCCCCCCCCCC(=O)O)CC3)NC(=O)[C@H]([C@@H](C)O)NC(=O)[C@H](C(C)C)NC(=O)[C@H](CC3CCC3)NC(=O)[C@H](CCN)NC(=O)[C@@H](CC(C)C)NC(=O)[C@H](CCCN)NC(=O)[C@H](Cc3ccc(OCC(=O)O)cc3)NC(=O)[C@H](Cc3ccc(-c4ccccc4)cc3)NC(=O)[C@H](Cc3ccc(OCC(=O)O)cc3)NC2=O)c1 [Compound 2164] ({CH2CO}-RY(Carboxymethyl)D[Phe(3-Me)]Y(Carboxymethyl)[Bip]Y(Carboxymethyl)[Orn][dL][Dab][Cba]VTC[Ac3c][Aun]-OH; thioether N-14)
12,250 nM,Cc1cccc(C[C@@H]2NC(=O)[C@H](CC(=O)O)NC(=O)[C@H](Cc3ccc(OCC(=O)O)cc3)NC(=O)[C@H](Cc3ccncc3)NC(=O)CSC[C@@H](C(=O)N[C@@H](CCN)C(=O)NCCOCCOCC(=O)NCCOCCOCC(=O)NCCCCCCCCCCCCC(=O)O)NC(=O)[C@H](CCC(=O)O)NC(=O)[C@H](C(C)C)NC(=O)[C@H](CC3CCCCC3)NC(=O)[C@H](CCN)NC(=O)[C@@H](CC(C)C)NC(=O)[C@H](CCCN)NC(=O)[C@H](Cc3ccc(C(=O)O)cc3)NC(=O)[C@H](Cc3ccc(-c4ccccc4)cc3)NC(=O)[C@H](Cc3ccc(C(=O)O)cc3)NC2=O)c1 [Compound 3754] ({CH2CO}-[4Pal]Y(Carboxymethyl)D[Phe(3-Me)][Phe(4-COOH)][Bip][Phe(4-COOH)][Orn][dL][Dab][Cha]VEC[Dab][AEEA][AEEA]-{NH(CH2)12COOH}; thioether N-14)
